Measured values from patent US10202389B2, “Pyrazolopyrimidinyl inhibitors of ubiquitin-activating enzyme” (Millennium Pharmaceuticals, Inc., priority 2012, dated 2019).

Key:
[1] = molecular target: mouse UAE (Mus musculus (Mouse), UniProt Q02053); assay: Ubiquitin Activating Enzyme (UAE) HTRF Assay; conditions: read-out: % inhibition @0.111 μM
Experimental: (§1) After incubation for 120 minutes, quantification of the FRET is performed on the Pherostar (BMG).
(§2) For compounds whose values are marked with an asterisk (*), mouse UAE was used. For all other compounds, human UAE was used.

[2] = molecular target: recombinant human UAE (Homo sapiens (Human), UniProt P22314); assay: Ubiquitin Activating Enzyme (UAE) HTRF Assay; conditions: read-out: % inhibition @0.111 μM
recombinant human UAE, sequence (P22314 whole entry): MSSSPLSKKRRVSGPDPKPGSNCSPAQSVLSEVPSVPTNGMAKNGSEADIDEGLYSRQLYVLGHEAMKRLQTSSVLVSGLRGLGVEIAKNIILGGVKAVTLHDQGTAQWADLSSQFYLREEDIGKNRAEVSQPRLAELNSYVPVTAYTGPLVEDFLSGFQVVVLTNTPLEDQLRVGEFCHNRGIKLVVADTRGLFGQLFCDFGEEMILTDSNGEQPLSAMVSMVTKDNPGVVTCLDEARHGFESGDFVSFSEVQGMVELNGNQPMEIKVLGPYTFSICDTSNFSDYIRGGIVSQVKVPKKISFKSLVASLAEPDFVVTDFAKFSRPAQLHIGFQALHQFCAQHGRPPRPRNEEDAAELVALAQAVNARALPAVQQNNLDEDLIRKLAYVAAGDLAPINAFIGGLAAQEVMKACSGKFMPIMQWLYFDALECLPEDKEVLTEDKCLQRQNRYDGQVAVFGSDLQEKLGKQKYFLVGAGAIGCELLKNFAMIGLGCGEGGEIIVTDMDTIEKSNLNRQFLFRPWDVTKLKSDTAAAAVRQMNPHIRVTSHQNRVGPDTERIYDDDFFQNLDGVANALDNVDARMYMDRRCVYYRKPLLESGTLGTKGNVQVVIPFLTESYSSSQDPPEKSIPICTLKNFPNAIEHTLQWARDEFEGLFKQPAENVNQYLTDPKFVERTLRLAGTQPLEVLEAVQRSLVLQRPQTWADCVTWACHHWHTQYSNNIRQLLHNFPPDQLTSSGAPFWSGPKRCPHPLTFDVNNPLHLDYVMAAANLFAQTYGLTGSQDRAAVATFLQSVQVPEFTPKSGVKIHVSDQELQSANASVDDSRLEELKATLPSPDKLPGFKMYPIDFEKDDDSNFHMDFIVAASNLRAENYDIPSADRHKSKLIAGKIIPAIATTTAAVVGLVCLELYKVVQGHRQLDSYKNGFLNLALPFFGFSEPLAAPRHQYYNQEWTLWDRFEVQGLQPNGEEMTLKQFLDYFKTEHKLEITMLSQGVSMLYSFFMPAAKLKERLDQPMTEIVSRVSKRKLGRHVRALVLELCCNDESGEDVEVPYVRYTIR
Experimental: as §1, §2

mouse UAE, sequence (Q02053 whole entry): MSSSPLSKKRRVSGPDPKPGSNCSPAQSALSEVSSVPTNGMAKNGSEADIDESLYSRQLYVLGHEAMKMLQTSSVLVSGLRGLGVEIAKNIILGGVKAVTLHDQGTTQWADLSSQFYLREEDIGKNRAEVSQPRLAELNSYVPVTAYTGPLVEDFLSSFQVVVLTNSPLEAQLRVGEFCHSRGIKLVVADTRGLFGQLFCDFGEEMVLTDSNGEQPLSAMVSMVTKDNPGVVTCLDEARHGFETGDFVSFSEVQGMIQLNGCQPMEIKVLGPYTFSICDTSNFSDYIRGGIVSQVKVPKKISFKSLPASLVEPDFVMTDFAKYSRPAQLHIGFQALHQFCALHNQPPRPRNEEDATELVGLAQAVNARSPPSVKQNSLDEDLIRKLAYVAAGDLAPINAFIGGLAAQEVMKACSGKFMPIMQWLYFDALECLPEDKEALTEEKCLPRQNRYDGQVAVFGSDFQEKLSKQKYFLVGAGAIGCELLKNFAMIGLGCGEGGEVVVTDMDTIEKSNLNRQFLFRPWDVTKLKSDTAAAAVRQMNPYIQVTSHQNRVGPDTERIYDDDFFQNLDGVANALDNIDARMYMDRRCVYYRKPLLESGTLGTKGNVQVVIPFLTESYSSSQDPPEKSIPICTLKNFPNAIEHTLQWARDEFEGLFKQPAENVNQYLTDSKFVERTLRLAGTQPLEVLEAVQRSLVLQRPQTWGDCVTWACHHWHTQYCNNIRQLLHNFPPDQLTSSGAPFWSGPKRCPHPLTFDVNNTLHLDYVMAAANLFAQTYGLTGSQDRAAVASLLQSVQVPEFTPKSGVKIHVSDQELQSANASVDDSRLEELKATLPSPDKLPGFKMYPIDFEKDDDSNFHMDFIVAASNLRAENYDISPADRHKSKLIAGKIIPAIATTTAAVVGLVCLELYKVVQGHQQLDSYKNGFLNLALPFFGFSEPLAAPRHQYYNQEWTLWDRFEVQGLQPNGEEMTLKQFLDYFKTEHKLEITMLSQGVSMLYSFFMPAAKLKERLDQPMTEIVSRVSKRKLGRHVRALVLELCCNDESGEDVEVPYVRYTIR

| SMILES | inhibition at 0.111 µM [1] | inhibition at 0.111 µM [2] |
| --- | --- | --- |
| NS(=O)(=O)OC[C@H]1C[C@@H](Nc2ccnc3cc(-c4csc5cc(Cl)ccc45)nn23)[C@H](O)[C@@H]1O (relative stereo) [Compound I-091, (rac)-((1R,2R,3S,4R)-4-(2-(6-chlorobenzo[b]thiophen-3-yl)pyrazolo[1,5-a]pyrimidin-7-ylamino)-2,3-dihydroxycyclopentyl)methyl rel-sulfamate] | 100% |  |
| NS(=O)(=O)OC[C@H]1C[C@@H](Nc2cc(Cl)nc3cc(-c4ccccn4)nn23)[C@H](O)[C@@H]1O (relative stereo) [Compound I-011, (rac)-((1R,2R,3S,4R)-4-(5-chloro-2-(pyridin-2-yl)pyrazolo[1,5-a]pyrimidin-7-ylamino)-2,3-dihydroxycyclopentyl)methyl rel-sulfamate] | 49% |  |
| NS(=O)(=O)OC[C@H]1C[C@@H](Nc2ccnc3cc(-c4cccc(Cl)c4)nn23)[C@H](O)[C@@H]1O (relative stereo) [Compound I-005, (rac)-((1R,2R,3S,4R)-4-((2-(3-Chlorophenyl)pyrazolo[1,5-a]pyrimidin-7-yl)amino)-2,3-dihydroxycyclopentyl)methyl rel-sulfamate] | 100% |  |
| NS(=O)(=O)OC[C@H]1C[C@@H](Nc2ccnc3cc(-c4cccc5ccccc45)nn23)[C@H](O)[C@@H]1O (relative stereo) [Compound I-002, (rac)-((1R,2R,3S,4R)-2,3-dihydroxy-4-{[2-(1-naphthyl)pyrazolo[1,5-a]pyrimidin-7-yl]amino}cyclopentyl)methyl rel-sulfamate] | 100% |  |
| NS(=O)(=O)OC[C@H]1C[C@@H](Nc2ccnc3cc(-c4ccccn4)nn23)[C@H](O)[C@@H]1O (relative stereo) [Compound I-012, (rac)-[(1R,2R,3S,4R)-2,3-dihydroxy-4-{[2-(pyridin-2-yl)pyrazolo[1,5-a]pyrimidin-7-yl]amino}cyclopentyl]methyl rel-sulfamate] | 61% |  |
| NS(=O)(=O)OC[C@H]1C[C@@H](Nc2ccnc3cc(-c4ccccc4)nn23)[C@H](O)[C@@H]1O (relative stereo) [Compound I-001, (rac)-((1R,2R,3S,4R)-2,3-dihydroxy-4-(2-phenylpyrazolo[1,5-a]pyrimidin-7-ylamino)cyclopentyl)methyl rel-sulfamate] | 72% |  |
| NS(=O)(=O)OC[C@H]1C[C@@H](Nc2ccnc3cc(-c4cccc5[nH]ccc45)nn23)[C@H](O)[C@@H]1O (relative stereo) [Compound I-075, (rac)-((1R,2R,3S,4R)-4-(2-(1H-indol-4-yl)pyrazolo[1,5-a]pyrimidin-7-ylamino)-2,3-dihydroxycyclopentyl)methyl rel-sulfamate] |  | 100% |
| NS(=O)(=O)OC[C@H]1C[C@@H](Nc2cc(Cl)nc3cc(-c4ccc(Br)cc4)nn23)[C@H](O)[C@@H]1O (relative stereo) [Compound I-008, (rac)-((1R,2R,3S,4R)-4-(2-(4-bromophenyl)-5-chloropyrazolo[1,5-a]pyrimidin-7-ylamino)-2,3-dihydroxycyclopentyl)methyl rel-sulfamate] |  | 28% |
